Molecules are shown by their SMILES.

Sequence of Mcl-1 protein (Q07820 whole entry): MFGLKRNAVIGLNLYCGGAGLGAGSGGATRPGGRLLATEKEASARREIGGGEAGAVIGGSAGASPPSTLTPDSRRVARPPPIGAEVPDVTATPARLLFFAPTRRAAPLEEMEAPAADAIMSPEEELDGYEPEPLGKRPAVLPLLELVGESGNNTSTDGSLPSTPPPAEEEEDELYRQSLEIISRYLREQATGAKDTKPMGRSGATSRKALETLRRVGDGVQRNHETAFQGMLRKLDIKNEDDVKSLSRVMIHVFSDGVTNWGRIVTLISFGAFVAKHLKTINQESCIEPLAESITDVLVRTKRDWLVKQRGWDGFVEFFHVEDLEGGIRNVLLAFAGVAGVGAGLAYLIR

This test has as its target Mcl-1 protein (UniProtKB Q07820) (Homo sapiens (Human), UniProt Q07820). Put plainly: Inhibition of Mcl-1 by the fluorescence polarisation assay (Example A, Method A). The following applies: fluorescence polarization assay. Format: binding. The method, boiled down: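 Protein (5 nM) and fluorescein-tagged peptide tracer (1 nM) incubated with 11-point compound series for 2 h at room temperature in HEPES/NaCl/Tween 20 buffer, pH 7.4, 5% DMSO. Displacement read as decrease in polarisation; IC50 fitted by 4-parameter logistic, converted to Ki (cKi or eKi).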
For `COc1ccc(C2Cc3ccccc3[C@]23CC[C@@](Nc2cccc(Cl)c2)(C(=O)O)CC3)c(Cl)c1` (single isomer, unassigned) [Example 268, (1r,4r)-4-(3-chloroanilino)-2′-(2-chloro-4-methoxyphenyl)-2′,3′-dihydrospiro[cyclohexane-1,1′-indene]-4-carboxylic acid], the Ki was found to be 1020 nM.

`COc1ccc(C2Cc3ccccc3[C@]23CC[C@@](Nc2cccc(Cl)c2)(C(=O)O)CC3)c(Cl)c1` (single isomer, unassigned) [Example 269, (1r,4r)-4-(3-chloroanilino)-2′-(2-chloro-4-methoxyphenyl)-2′,3′-dihydrospiro[cyclohexane-1,1′-indene]-4-carboxylic acid]: the Ki was 11100 nM.

With `COc1ccc(C)c(C2Cc3ccccc3[C@]23CC[C@@](Nc2cccc(Cl)c2)(C(=O)O)CC3)c1` (single isomer, unassigned) [Example 270, (1r,4r)-4-(3-chloroanilino)-2′-(5-methoxy-2-methylphenyl)-2′,3′-dihydrospiro[cyclohexane-1,1′-indene]-4-carboxylic acid], the Ki was 3960 nM.

Turning to `COc1ccc(C)c(C2Cc3ccccc3[C@]23CC[C@@](Nc2cccc(Cl)c2)(C(=O)O)CC3)c1` (single isomer, unassigned) [Example 271, (1r,4r)-4-(3-chloroanilino)-2′-(5-methoxy-2-methylphenyl)-2′,3′-dihydrospiro[cyclohexane-1,1′-indene]-4-carboxylic acid], the Ki was 12500 nM.

`COc1cccc(C2Cc3ccccc3[C@]23CC[C@@](Nc2cccc(Cl)c2)(C(=O)O)CC3)c1` (single isomer, unassigned) [Example 272, (1r,4r)-4-(3-chloroanilino)-2′-(3-methoxyphenyl)-2′,3′-dihydrospiro[cyclohexane-1,1′-indene]-4-carboxylic acid]: the Ki was 127 nM.

In the case of `COc1cccc(C2Cc3ccccc3[C@]23CC[C@@](Nc2cccc(Cl)c2)(C(=O)O)CC3)c1` (single isomer, unassigned) [Example 273, (1r,4r)-4-(3-chloroanilino)-2′-(3-methoxyphenyl)-2′,3′-dihydrospiro[cyclohexane-1,1′-indene]-4-carboxylic acid], the Ki is 1720 nM.

As for `O=C(O)[C@]1(Nc2cccc(Cl)c2)CC[C@@]2(CC1)c1ccccc1CC2c1coc2ccccc12` (single isomer, unassigned) [Example 284, (1r,4r)-2′-(1-benzofuran-3-yl)-4-(3-chloroanilino)-2′,3′-dihydrospiro[cyclohexane-1,1′-indene]-4-carboxylic acid], the Ki stood at 1220 nM.

For `O=C(O)[C@]1(Nc2cccc(Cl)c2)CC[C@@]2(CC1)c1ccccc1CC2c1coc2ccccc12` (single isomer, unassigned) [Example 285, (1r,4r)-2′-(1-benzofuran-3-yl)-4-(3-chloroanilino)-2′,3′-dihydrospiro[cyclohexane-1,1′-indene]-4-carboxylic acid], the Ki is 4960 nM.

As to `O=C(O)[C@]1(Nc2cccc(Cl)c2)CC[C@@]2(CC1)c1ccccc1CC2c1ccc2c(c1)OCC2` (single isomer, unassigned) [Example 287, (1r,4r)-4-(3-chloroanilino)-2′-(2,3-dihydro-1-benzofuran-6-yl)-2′,3′-dihydrospiro[cyclohexane-1,1′-indene]-4-carboxylic acid], the Ki is 925 nM.

`O=C(O)[C@]1(Nc2cccc(Cl)c2)CC[C@@]2(CC1)c1ccccc1CC2c1ccc2ccoc2c1` (single isomer, unassigned) [Example 290, (1r,4r)-2′-(1-benzofuran-6-yl)-4-(3-chloroanilino)-2′,3′-dihydrospiro[cyclohexane-1,1′-indene]-4-carboxylic acid]: the Ki turned out to be 14400 nM.

Take `COc1cccc(C2Cc3ccccc3[C@]23CC[C@@](Nc2cccc(Cl)c2)(C(=O)O)CC3)c1Cl` (single isomer, unassigned) [Example 291, (1r,4r)-4-(3-chloroanilino)-2′-(2-chloro-3-methoxyphenyl)-2′,3′-dihydrospiro[cyclohexane-1,1′-indene]-4-carboxylic acid]: the Ki was 2540 nM.

Take `O=C(O)[C@]1(Nc2cccc(Cl)c2)CC[C@@]2(CC1)c1ccccc1CC2c1cccc2ccoc12` (single isomer, unassigned) [Example 293, (1r,4r)-2′-(1-benzofuran-7-yl)-4-(3-chloroanilino)-2′,3′-dihydrospiro[cyclohexane-1,1′-indene]-4-carboxylic acid]: the Ki worked out at 499 nM.

Turning to `O=C(O)[C@]1(Nc2cccc(Cl)c2)CC[C@@]2(CC1)c1ccccc1CC2c1cccc2ccoc12` (single isomer, unassigned) [Example 294, (1r,4r)-2′-(1-benzofuran-7-yl)-4-(3-chloroanilino)-2′,3′-dihydrospiro[cyclohexane-1,1′-indene]-4-carboxylic acid], the Ki is 6630 nM.

With `O=C(O)[C@]1(Nc2cccc(Cl)c2)CC[C@@]2(CC1)c1ccccc1CC2c1cccc2c1OCC2` (single isomer, unassigned) [Example 295, (1r,4r)-4-(3-chloroanilino)-2′-(2,3-dihydro-1-benzofuran-7-yl)-2′,3′-dihydrospiro[cyclohexane-1,1′-indene]-4-carboxylic acid], the Ki worked out at 643 nM.

As to `O=C(O)[C@]1(Nc2cccc(Cl)c2)CC[C@@]2(CC1)c1ccccc1CC2c1cccc2c1OCC2` (single isomer, unassigned) [Example 296, (1r,4r)-4-(3-chloroanilino)-2′-(2,3-dihydro-1-benzofuran-7-yl)-2′,3′-dihydrospiro[cyclohexane-1,1′-indene]-4-carboxylic acid], the Ki is 3460 nM.

For the compound `Cc1ccc(C2Cc3ccccc3[C@]23CC[C@@](Nc2cccc(Cl)c2)(C(=O)O)CC3)cc1` (single isomer, unassigned) [Example 306, (1r,4r)-4-(3-chloroanilino)-2′-(4-methylphenyl)-2′,3′-dihydrospiro[cyclohexane-1,1′-indene]-4-carboxylic acid], the Ki came to 663 nM.

`Cc1ccc(C2Cc3ccccc3[C@]23CC[C@@](Nc2cccc(Cl)c2)(C(=O)O)CC3)cc1` (single isomer, unassigned) [Example 307, (1r,4r)-4-(3-chloroanilino)-2′-(4-methylphenyl)-2′,3′-dihydrospiro[cyclohexane-1,1′-indene]-4-carboxylic acid]: the Ki worked out at 9170 nM.

For `O=C(O)[C@]1(Nc2cccc(Cl)c2)CC[C@@]2(CC1)c1ccccc1CC2c1ccc(Cl)cc1` (single isomer, unassigned) [Example 319, (1r,4r)-4-(3-chloroanilino)-2′-(4-chlorophenyl)-2′,3′-dihydrospiro[cyclohexane-1,1′-indene]-4-carboxylic acid], the Ki came out at 906 nM.

For the compound `O=C(O)[C@]1(Nc2cccc(Cl)c2)CC[C@@]2(CC1)c1ccccc1CC2c1ccc(Cl)cc1` (single isomer, unassigned) [Example 320, (1r,4r)-4-(3-chloroanilino)-2′-(4-chlorophenyl)-2′,3′-dihydrospiro[cyclohexane-1,1′-indene]-4-carboxylic acid], the Ki is 6860 nM.

For `COc1cccc(C2Cc3ccccc3[C@]23CC[C@@](Nc2cccc(Cl)c2)(C(=O)O)CC3)c1C` (single isomer, unassigned) [Example 321, (1r,4r)-4-(3-chloroanilino)-2′-(3-methoxy-2-methylphenyl)-2′,3′-dihydrospiro[cyclohexane-1,1′-indene]-4-carboxylic acid], the Ki came out at 2940 nM.

On to `COc1cccc(C2Cc3ccccc3[C@]23CC[C@@](Nc2cccc(Cl)c2)(C(=O)O)CC3)c1C` (single isomer, unassigned) [Example 322, (1r,4r)-4-(3-chloroanilino)-2′-(3-methoxy-2-methylphenyl)-2′,3′-dihydrospiro[cyclohexane-1,1′-indene]-4-carboxylic acid], for which the Ki was 17700 nM.

As to `O=C(O)[C@]1(Nc2cccc(Cl)c2)CC[C@@]2(CC1)c1ccccc1CC2c1ccccc1` (single isomer, unassigned) [Example 327, (1r,4r)-4-(3-chloroanilino)-2′-phenyl-2′,3′-dihydrospiro[cyclohexane-1,1′-indene]-4-carboxylic acid], the Ki turned out to be 7140 nM.

For `O=C(O)[C@]1(Nc2cccc(Cl)c2)CC[C@@]2(CC1)c1ccccc1CC2c1ccccc1` (single isomer, unassigned) [Example 328, (1r,4r)-4-(3-chloroanilino)-2′-phenyl-2′,3′-dihydrospiro[cyclohexane-1,1′-indene]-4-carboxylic acid], the Ki came to 677 nM.

Consider `O=C(O)[C@]1(Nc2cccc(Cl)c2)CC[C@@]2(CC1)c1ccccc1CC2c1cccc(Cl)c1` (single isomer, unassigned) [Example 343, (1r,4r)-4-(3-chloroanilino)-2′-(3-chlorophenyl)-2′,3′-dihydrospiro[cyclohexane-1,1′-indene]-4-carboxylic acid], for which the Ki was found to be 978 nM.

For `O=C(O)[C@]1(Nc2cccc(Cl)c2)CC[C@@]2(CC1)c1ccccc1CC2c1cccc(Cl)c1` (single isomer, unassigned) [Example 344, (1r,4r)-4-(3-chloroanilino)-2′-(3-chlorophenyl)-2′,3′-dihydrospiro[cyclohexane-1,1′-indene]-4-carboxylic acid], the Ki worked out at 11200 nM.

`COc1cc(Cl)cc(C2Cc3ccccc3[C@]23CC[C@@](Nc2cccc(Cl)c2)(C(=O)O)CC3)c1` (single isomer, unassigned) [Example 347, (1r,4r)-4-(3-chloroanilino)-2′-(3-chloro-5-methoxyphenyl)-2′,3′-dihydrospiro[cyclohexane-1,1′-indene]-4-carboxylic acid]: the Ki was 1130 nM.

In the case of `COc1cc(Cl)cc(C2Cc3ccccc3[C@]23CC[C@@](Nc2cccc(Cl)c2)(C(=O)O)CC3)c1` (single isomer, unassigned) [Example 348, (1r,4r)-4-(3-chloroanilino)-2′-(3-chloro-5-methoxyphenyl)-2′,3′-dihydrospiro[cyclohexane-1,1′-indene]-4-carboxylic acid], the Ki was found to be 10600 nM.

The values above are taken from US20240150293A1, “SPIROCYCLOHEXANE DERIVATIVES, PHARMACEUTICAL COMPOSITIONS CONTAINING THEM AND THEIR USES AS ANTI-APOPTOTIC INHIBITORS” (LES LABORATOIRES SERVIER, priority 2021, published 2024).
